System: denuded oocytes (DO)
Test: Oocyte assay, agonistic testing, denuded oocytes (DO assay)
Type: cell-based, mice (B6D2-F1, strain C57BL×DBA)
Details: compound 5 μM, hypoxanthine medium, 22 hours culture, control value in brackets
Source text: Oocytes arrested in meiosis contain diffused chromosomes which are surrounded by an intact nuclear envelope known as the germinal vesicle (GV). Upon reinitiation of meiosis by the midcycle gonadotropin surge, the chromosomes recondense and the GV breaks down (GVBD). In vivo, the oocyte is exposed to hypoxanthine (HX), which maintains the oocyte arrested in the meiotic prophase. This meiotic arrest can be mimicked in vitro by addition of hypoxanthine to the culture medium. The agonistic activity of meiosis activating substances is measured as the ability to overcome the hypoxanthine maintained meiotic arrest in denuded oocytes (DO) or cumulus enclosed oocytes (CEO), i.e. as the ability to induce meiotic resumption in vitro.
Ovaries are obtained from immature female mice (B6D2-F1, strain C57BL×DBA). At the age of 19, 20 or 21 days the mice are injected subcutaneously with a single dose of 20 IU follicle stimulating hormone (Humegon, Organon, The Netherlands) in saline.
Forty-eight hours after follicle stimulating hormone injection mice are killed by cervical dislocation. The ovaries are removed, freed of extraneous tissue and placed in a multidish containing 0.5 ml preparation medium at 37° C. L-15 Leibovitz medium (Gibco, pH 7.3±0.1) supplemented with bovine serum albumin (3 mg·ml^−1), L-glutamine (0.23 mM), sodium pyruvate (2 mM) and hypoxanthine (4 mM) is used as preparation medium. The antral follicles of the ovaries are punctured under a dissecting microscope using two 27-gauge needles attached to two 1 ml syringes. Cumulus enclosed oocytes (CEO) of uniform size are selected with a mouth-controlled pipette and rinsed in 0.5 ml fresh preparation medium. About 20 CEO are obtained from one ovary.
Oocytes freed from cumulus cells, i.e. denuded oocytes (DO), are obtained by gently flushing CEO through a fine-bore mouth-controlled pipette. DO were collected in fresh MEM alpha medium, containing bovine serum albumin (3 mg·ml^−1), L-glutamine (0.23 mM), sodium pyruvate (2 mM) and hypoxanthine (4 mM), and washed twice before transfer to the test medium.
The oocyte assay is performed in 3 blocks, each block represents the ovaries of one mouse (randomized block design). […] At t=0 the number of oocytes with intact germinal vesicles (GV) or germinal vesicle break-down (GVBD) is counted under an inverted microscope with differential interference contrast equipment. […] At the end of the culture period the number of oocytes with GV or GVBD per group is counted. For statistical analysis the percentage germinal vesicle breakdown is calculated for each group in one block. These percentages are subjected to arcsin transformation, and differences between control and test compounds are analyzed by an ANOVA test for a randomized block design. […]

| SMILES | % GVBD DO assay exp. |
| --- | --- |
| CC(C)CC[C@@H](O)[C@@H](C)[C@H]1CC=C2C3=C(CC[C@@]21C)[C@@]1(C)CC[C@H](O)C(C)(C)[C@@H]1CC3 [Example 1, (3β,5α,20S,22R)-4,4-Dimethylcholesta-8,14-diene-3,22-diol] | 0(0) % |
| CC(C)=CC[C@@H](O)[C@@H](C)[C@H]1CC=C2C3=C(CC[C@@]21C)[C@@]1(C)CC[C@H](O)C(C)(C)[C@@H]1CC3 [Example 2, (3β,5α,20S,22R)-4,4-Dimethylcholesta-8,14,24-triene-3,22-diol] | 3(3) % |

Reference: patent US6518262B1, “22R-hydroxycholesta-8, 14-diene derivatives for the inhibition of meiosis” (Akzo Nobel N.V., priority 1999, dated 2003)
